This experiment concerns NL-RLuc virus (recombinant NL4-3 HIV with Renilla Luciferase gene). Briefly: Inhibition of HIV replication (NL-RLuc virus in MT-2 cells, luciferase readout). It counts as cell-based, Human immunodeficiency virus (HIV). The settings on record: MT2, 120 h. A digest of the protocol:
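EC50 derived via median effect equation from at least 2 experiments, using luciferase expression as virus-growth readout. Replication-competent NL-RLuc reporter virus (nef partly replaced by Renilla luciferase) infected MT-2 cells with serial compound dilutions; 5-day incubation in RPMI 1640 plus 10% FBS.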
Consider `Cc1nc(C)c([C@H](OC(C)(C)C)C(=O)O)c(N2CCC(C)(C)CC2)c1-c1ccc2c(c1)CCN(c1ccnc(N3CCCC3)n1)C2` [Example 20, (2S)-2-(tert-Butoxy)-2-[4-(4,4-dimethylpiperidin-1-yl)-2,6-dimethyl-5-{2-[2-(pyrrolidin-1-yl)pyrimidin-4-yl]-1,2,3,4-tetrahydroisoquinolin-6-yl}pyridin-3-yl]acetic Acid], for which the EC50 stood at 2 nM.

On to `Cc1nc(C)c([C@H](OC(C)(C)C)C(=O)O)c(N2CCC(C)(C)CC2)c1-c1ccc2c(c1)CCN(c1cc(N3CCC(N4CCCCC4)CC3)ncn1)C2` [Example 135, (S)-2-(5-(2-(6-([1,4′-Bipiperidin]-1′-yl)pyrimidin-4-yl)-1,2,3,4-tetrahydroisoquinolin-6-yl)-4-(4,4-dimethylpiperidin-1-yl)-2,6-dimethylpyridin-3-yl)-2-(tert-butoxy)acetic Acid], for which the EC50 stood at 19 nM.

For the compound `Cc1nc(C)c([C@H](OC(C)(C)C)C(=O)O)c(N2CCC(C)(C)CC2)c1-c1ccc2c(c1)CCN(c1nccc(N3CCCCC3)n1)C2` [Example 23, (2S)-2-(tert-Butoxy)-2-[4-(4,4-dimethylpiperidin-1-yl)-2,6-dimethyl-5-{2-[4-(piperidin-1-yl)pyrimidin-2-yl]-1,2,3,4-tetrahydroisoquinolin-6-yl}pyridin-3-yl]acetic Acid], the EC50 amounted to 3 nM.

Take `Cc1nc(C)c([C@H](OC(C)(C)C)C(=O)O)c(N2CCC(C)(C)CC2)c1-c1ccc2c(c1)CCN(c1cc(N3CCCCC3)ncn1)C2` [Example 124, (S)-2-(tert-Butoxy)-2-(4-(4,4-dimethylpiperidin-1-yl)-2,6-dimethyl-5-(2-(6-(piperidin-1-yl)pyrimidin-4-yl)-1,2,3,4-tetrahydroisoquinolin-6-yl)pyridin-3-yl)acetic Acid]: the EC50 is 17 nM.

In the case of `Cc1nc(CN2CCC2)c(-c2ccc3c(c2)CCN(c2ncnc4c2oc2ccccc24)C3)c(N2CCC(C)(C)CC2)c1[C@H](OC(C)(C)C)C(=O)O` [Example 160, (S)-2-(6-(Azetidin-1-ylmethyl)-5-(2-(benzofuro[3,2-d]pyrimidin-4-yl)-1,2,3,4-tetrahydroisoquinolin-6-yl)-4-(4,4-dimethylpiperidin-1-yl)-2-methylpyridin-3-yl)-2-(tert-butoxy)acetic Acid], the EC50 came to 20 nM.

For `Cc1nc(C#N)c(-c2ccc3c(c2)CCN(c2ncnc4c2oc2ccccc24)C3)c(N2CCC(C)(C)CC2)c1[C@H](OC(C)(C)C)C(=O)O` [Example 50], the EC50 is 4 nM.

For `Cc1nc(CN2CCC(C)(C)CC2)c(-c2ccc3c(c2)CCN(c2ncnc4c2oc2ccccc24)C3)c(N2CCC(C)(C)CC2)c1[C@H](OC(C)(C)C)C(=O)O` [Example 161, (S)-2-(5-(2-(Benzofuro[3,2-d]pyrimidin-4-yl)-1,2,3,4-tetrahydroisoquinolin-6-yl)-4-(4,4-dimethylpiperidin-1-yl)-6-((4,4-dimethylpiperidin-1-yl)methyl)-2-methylpyridin-3-yl)-2-(tert-butoxy)acetic Acid], the EC50 came to 1 nM.

Regarding `Cc1nc(N2CCOCC2)nc(N2CCc3cc(-c4c(C)nc(C)c([C@H](OC(C)(C)C)C(=O)O)c4N4CCC(C)(C)CC4)ccc3C2)n1` [Example 56, (S)-2-(tert-Butoxy)-2-(4-(4,4-dimethylpiperidin-1-yl)-2,6-dimethyl-5-(2-(4-methyl-6-morpholino-1,3,5-triazin-2-yl)-1,2,3,4-tetrahydroisoquinolin-6-yl)pyridin-3-yl)acetic Acid], the EC50 is 1 nM.

Regarding `Cc1nc(C)c([C@H](OC(C)(C)C)C(=O)O)c(N2CCC(C)(C)CC2)c1-c1ccc2c(c1)CCN(c1ccnc(N3CCC3)n1)C2` [Example 18, (2S)-2-(5-{2-[2-(Azetidin-1-yl)pyrimidin-4-yl]-1,2,3,4-tetrahydroisoquinolin-6-yl}-4-(4,4-dimethylpiperidin-1-yl)-2,6-dimethylpyridin-3-yl)-2-(tert-butoxy)acetic Acid], the EC50 stood at 1 nM.

For `Cc1nc(C)c([C@H](OC(C)(C)C)C(=O)O)c(N2CCC(C)(C)CC2)c1-c1ccc2c(c1)CCN(c1nccc(N3C[C@@H](C)N(C)[C@@H](C)C3)n1)C2` [Example 41, (2S)-2-(tert-Butoxy)-2-[4-(4,4-dimethylpiperidin-1-yl)-2,6-dimethyl-5-(2-{4-[(3R,5S)-3,4,5-trimethylpiperazin-1-yl]pyrimidin-2-yl}-1,2,3,4-tetrahydroisoquinolin-6-yl)pyridin-3-yl]acetic Acid], the EC50 was 3 nM.

`Cc1nc(C)c([C@H](OC(C)(C)C)C(=O)O)c(N2CCC(C)(C)CC2)c1-c1ccc2c(c1)CCN(c1ncnc(N3CCC(O)CC3)n1)C2` [Example 61, (S)-2-(tert-Butoxy)-2-(4-(4,4-dimethylpiperidin-1-yl)-5-(2-(4-(4-hydroxypiperidin-1-yl)-1,3,5-triazin-2-yl)-1,2,3,4-tetrahydroisoquinolin-6-yl)-2,6-dimethylpyridin-3-yl)acetic Acid]: the EC50 was 2 nM.

With `Cc1nc(C)c([C@H](OC(C)(C)C)C(=O)O)c(N2CCC(C)(C)CC2)c1-c1ccc2c(c1)CCN(c1nccc(N3CCN(CCO)CC3)n1)C2` [Example 69, (S)-2-(tert-Butoxy)-2-(4-(4,4-dimethylpiperidin-1-yl)-5-(2-(4-(4-(2-hydroxyethyl)piperazin-1-yl)pyrimidin-2-yl)-1,2,3,4-tetrahydroisoquinolin-6-yl)-2,6-dimethylpyridin-3-yl)acetic Acid], the EC50 came to 18 nM.

In the case of `Cc1nc(C)c([C@H](OC(C)(C)C)C(=O)O)c(N2CCC(C)(C)CC2)c1-c1ccc2c(c1)CCN(c1nccc(-c3cccnc3)n1)C2` [Example 105, (S)-2-(tert-Butoxy)-2-(4-(4,4-dimethylpiperidin-1-yl)-2,6-dimethyl-5-(2-(4-(pyridin-3-yl)pyrimidin-2-yl)-1,2,3,4-tetrahydroisoquinolin-6-yl)pyridin-3-yl)acetic Acid], the EC50 turned out to be 1 nM.

Consider `Cc1nc(C)c([C@H](OC(C)(C)C)C(=O)O)c(N2CCC(C)(C)CC2)c1-c1ccc2c(c1)CCN(c1cc(N3CCN(C)CC3)ncn1)C2` [Example 129, (S)-2-(tert-Butoxy)-2-(4-(4,4-dimethylpiperidin-1-yl)-2,6-dimethyl-5-(2-(6-(4-methylpiperazin-1-yl)pyrimidin-4-yl)-1,2,3,4-tetrahydroisoquinolin-6-yl)pyridin-3-yl)acetic Acid], for which the EC50 was determined as 12 nM.

In the case of `Cc1nc(C)c([C@H](OC(C)(C)C)C(=O)O)c(N2CCC(C)(C)CC2)c1-c1ccc2c(c1)CCN(c1ccnc(N3CCN(C)CC3)n1)C2` [Example 39, (2S)-2-(tert-Butoxy)-2-[4-(4,4-dimethylpiperidin-1-yl)-2,6-dimethyl-5-{2-[2-(4-methylpiperazin-1-yl)pyrimidin-4-yl]-1,2,3,4-tetrahydroisoquinolin-6-yl}pyridin-3-yl]acetic Acid], the EC50 worked out at 5 nM.

As to `Cc1nc(C)c([C@H](OC(C)(C)C)C(=O)O)c(N2CCC(C)(C)CC2)c1-c1ccc2c(c1)CCN(c1ccnc(N3CC4CCC(C3)O4)n1)C2` [Example 29, (2S)-2-(tert-Butoxy)-2-[4-(4,4-dimethylpiperidin-1-yl)-2,6-dimethyl-5-[2-(2-{8-oxa-3-azabicyclo[3.2.1]octan-3-yl}pyrimidin-4-yl)-1,2,3,4-tetrahydroisoquinolin-6-yl]pyridin-3-yl]acetic Acid], the EC50 was 4 nM.

In the case of `CC1(C)CCN(c2c(-c3ccc4c(c3)CCN(c3ncnc5c3oc3ncccc35)C4)c(CN3CCC4(CCC4)CC3)nc(Cl)c2[C@H](OC(C)(C)C)C(=O)O)CC1` [Example 152, (S)-2-(6-((7-Azaspiro[3.5]nonan-7-yl)methyl)-2-chloro-4-(4,4-dimethylpiperidin-1-yl)-5-(2-(pyrido[3′,2′:4,5]furo[3,2-d]pyrimidin-4-yl)-1,2,3,4-tetrahydroisoquinolin-6-yl)pyridin-3-yl)-2-(tert-butoxy)acetic Acid], the EC50 came to 0.1 nM.

On to `Cc1nc(C)c([C@H](OC(C)(C)C)C(=O)O)c(N2CCC(C)(C)CC2)c1-c1ccc2c(c1)CCN(c1ncnc3c1oc1ccc(Cl)cc13)C2` [Example 122, (S)-2-(tert-Butoxy)-2-(5-(2-(8-chlorobenzofuro[3,2-d]pyrimidin-4-yl)-1,2,3,4-tetrahydroisoquinolin-6-yl)-4-(4,4-dimethylpiperidin-1-yl)-2,6-dimethylpyridin-3-yl)acetic Acid], for which the EC50 amounted to 5 nM.

For `CC1(C)CCN(c2c(-c3ccc4c(c3)CCN(c3nccc(-c5cccnc5)n3)C4)cnc(Cl)c2[C@H](OC(C)(C)C)C(=O)O)CC1` [Example 149, (S)-2-(tert-Butoxy)-2-(2-chloro-4-(4,4-dimethylpiperidin-1-yl)-5-(2-(4-(pyridin-3-yl)pyrimidin-2-yl)-1,2,3,4-tetrahydroisoquinolin-6-yl)pyridin-3-yl)acetic Acid], the EC50 came out at 2 nM.

On to `Cc1cccc(Cl)c1CN1CCc2cc(-c3c(CO)nc(Cl)c([C@H](OC(C)(C)C)C(=O)O)c3N3CCC(C)(C)CC3)ccc2C1` [Example 97, (S)-2-(tert-Butoxy)-2-(2-chloro-5-(2-(2-chloro-6-methylbenzyl)-1,2,3,4-tetrahydroisoquinolin-6-yl)-4-(4,4-dimethylpiperidin-1-yl)-6-(hydroxymethyl)pyridin-3-yl)acetic Acid], for which the EC50 was determined as 2 nM.

`Cc1nc(C)c([C@H](OC(C)(C)C)C(=O)O)c(N2CCC(C)(C)CC2)c1-c1ccc2c(c1)CCN(c1cc(N3CCC(C(C)(C)O)CC3)ncc1F)C2` [Example 104, (S)-2-(tert-Butoxy)-2-(4-(4,4-dimethylpiperidin-1-yl)-5-(2-(5-fluoro-2-(4-(2-hydroxypropan-2-yl)piperidin-1-yl)pyridin-4-yl)-1,2,3,4-tetrahydroisoquinolin-6-yl)-2,6-dimethylpyridin-3-yl)acetic Acid]: the EC50 came out at 10 nM.

In the case of `Cc1nc(C)c([C@H](OC(C)(C)C)C(=O)O)c(N2CCC(C)(C)CC2)c1-c1ccc2c(c1)CCN(c1ccnc(N3C4CCC3CN(C)C4)n1)C2` [Example 42, (2S)-2-(tert-Butoxy)-2-[4-(4,4-dimethylpiperidin-1-yl)-2,6-dimethyl-5-[2-(2-{3-methyl-3,8-diazabicyclo[3.2.1]octan-8-yl}pyrimidin-4-yl)-1,2,3,4-tetrahydroisoquinolin-6-yl]pyridin-3-yl]acetic Acid], the EC50 came to 4 nM.

Source of the values: patent US20200016136A1 (VIIV HEALTHCARE UK (NO. 5) LIMITED, priority 2017, published 2020).
